The source of these data is paper PMC4736156 (Drug delivery and translational research, 2016).

Values joined by “and” are separate entries in the source; they are usually repeats but may differ in a detail not shown here. Equal values may be shown once. Where a name gives a salt, the structure may show the parent alone.

For data set [1] the following is noted: in vivo; cited from earlier work.
For the next data set, the system named is HIV. Conditions: tenofovir gel formulation, vaginal mucosa, CAPRISA 004; ref [4],[5]; cited from earlier work.
The next data set concerns the target recombinant HIV-1 PR (Human immunodeficiency virus type 1 group M subtype B, UniProt P04585). The data set is described as follows: FRET-based HIV-1 PR inhibition assay. In kind it is biochemical. Conditions: FRET substrate 5.0 µM, HIV-1 PR 35.2 nM, 37 °C, mean ± s.d., n = 3.
The conditions of data set [2]: in serum; ref [16]; cited from earlier work.
The nature of data set [3]: Penetration and retention in mouse colorectal mucosa after rectal dosing. The class given is in vivo. The conditions noted are these: mice, rectal 200 µl of 30 µM; at 2 h and 1 d; result in words.

As for `CC(Cn1cnc2c(N)ncnc21)OCP(=O)(O)OP(=O)(O)OP(=O)(O)O` (stereo in doubt) [tenofovir diphosphate], in data set [1], the “vaginal concentrations in tissue after daily gel administration” value was “about 1000 fmol/mg”. On to `C[C@H](Cn1cnc2c(N)ncnc21)OCP(=O)(O)O` [tenofovir], for which the “effectiveness in preventing HIV transmission” value in the data set on HIV is reported as 39%. With `CC(C)CN(C[C@@H](O)[C@H](Cc1ccccc1)NC(=O)O[C@H]1CCOC1)S(=O)(=O)c1ccc(N)cc1` [APV, amprenavir], the “cell viability compared to untreated cells” value in the data set with MT-2 cells is on record as “no statistical difference in comparison to untreated cells”. Besides, the “rate constant kobs of FRET substrate cleavage (slope of ln(F∞ – Ft) vs time)” value on recombinant HIV-1 PR (1.0 µM APV) is −0.1638 (± 0.0080) min^−1 and −0.1638 (± 0.007995) min^−1; at recombinant HIV-1 PR (2.0 µM APV), −0.0890 (± 0.0049) min^−1 and −0.0890 (± 0.004938) min^−1; on recombinant HIV-1 PR (5.0 µM APV) it was −0.03766 (± 0.0019) min^−1 and −0.03766 (± 0.00191) min^−1.

As for `CC(C)OC(=O)OCOP(=O)(CO[C@H](C)Cn1cnc2c(N)ncnc21)OCOC(=O)OC(C)C` [TDF, tenofovir disoproxil fumarate], the half-life entry in data set [2] is on record as “about 17 hours”.

As to fluoresceine thiourea [FTU], the mucosal tissue concentration entry in data set [3] is on record as “negligible”.
